Measurements: paper PMC3914206

Columns and labels:
Type in all cases: binding
Settings in all cases: Compound Concentration 10 µM
panel of 442 kinases [1] = biological target: T1, panel of 442 kinases (Homo sapiens, UniProt P10721, T670I/V559D)
T1 construct: purchased KINOMEscan
From the text: (§1) We assessed the selectivity of members of this scaffold using the KINOMEscan methodology across a near comprehensive panel of 442 kinases [[18,27]].

panel of 442 kinases [2] = biological target: T2, panel of 442 kinases (Homo sapiens, UniProt Q06187)
T2 construct: purchased KINOMEscan
From the text: as §1

panel of 442 kinases [3] = biological target: T3, panel of 442 kinases (Homo sapiens, UniProt P15735)
T3 construct: purchased KINOMEscan
T3 sequence (P15735 1-406): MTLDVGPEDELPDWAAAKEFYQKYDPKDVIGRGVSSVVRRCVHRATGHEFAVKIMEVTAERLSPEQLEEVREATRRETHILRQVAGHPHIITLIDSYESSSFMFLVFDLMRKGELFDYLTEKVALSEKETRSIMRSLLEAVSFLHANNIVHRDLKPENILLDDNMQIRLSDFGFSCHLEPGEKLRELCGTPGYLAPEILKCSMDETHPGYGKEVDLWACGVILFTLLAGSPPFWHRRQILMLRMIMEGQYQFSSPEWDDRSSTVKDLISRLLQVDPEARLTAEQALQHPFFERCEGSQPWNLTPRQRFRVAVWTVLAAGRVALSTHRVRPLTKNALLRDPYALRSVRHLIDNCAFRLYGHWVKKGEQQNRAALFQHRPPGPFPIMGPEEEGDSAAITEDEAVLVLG
From the text: as §1

T2 sequence (Q06187 whole entry): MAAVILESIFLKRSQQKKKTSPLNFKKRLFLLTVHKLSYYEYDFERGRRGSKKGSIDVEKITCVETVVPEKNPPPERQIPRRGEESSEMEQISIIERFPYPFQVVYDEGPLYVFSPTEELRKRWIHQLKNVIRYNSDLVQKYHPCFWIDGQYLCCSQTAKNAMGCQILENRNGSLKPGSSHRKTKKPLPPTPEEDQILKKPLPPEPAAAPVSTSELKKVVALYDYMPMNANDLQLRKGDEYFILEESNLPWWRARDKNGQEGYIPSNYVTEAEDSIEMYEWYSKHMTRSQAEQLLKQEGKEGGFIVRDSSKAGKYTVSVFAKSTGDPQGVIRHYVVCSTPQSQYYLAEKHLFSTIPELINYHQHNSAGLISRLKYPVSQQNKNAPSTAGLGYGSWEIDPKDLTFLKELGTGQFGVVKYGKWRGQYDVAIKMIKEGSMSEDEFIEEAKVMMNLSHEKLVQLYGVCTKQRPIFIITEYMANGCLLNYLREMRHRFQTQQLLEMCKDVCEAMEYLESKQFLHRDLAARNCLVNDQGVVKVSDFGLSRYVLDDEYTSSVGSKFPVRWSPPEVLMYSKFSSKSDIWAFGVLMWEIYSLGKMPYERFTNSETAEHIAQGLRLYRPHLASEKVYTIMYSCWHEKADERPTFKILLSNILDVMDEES
T1 sequence (P10721 26-976 V559D/T670I): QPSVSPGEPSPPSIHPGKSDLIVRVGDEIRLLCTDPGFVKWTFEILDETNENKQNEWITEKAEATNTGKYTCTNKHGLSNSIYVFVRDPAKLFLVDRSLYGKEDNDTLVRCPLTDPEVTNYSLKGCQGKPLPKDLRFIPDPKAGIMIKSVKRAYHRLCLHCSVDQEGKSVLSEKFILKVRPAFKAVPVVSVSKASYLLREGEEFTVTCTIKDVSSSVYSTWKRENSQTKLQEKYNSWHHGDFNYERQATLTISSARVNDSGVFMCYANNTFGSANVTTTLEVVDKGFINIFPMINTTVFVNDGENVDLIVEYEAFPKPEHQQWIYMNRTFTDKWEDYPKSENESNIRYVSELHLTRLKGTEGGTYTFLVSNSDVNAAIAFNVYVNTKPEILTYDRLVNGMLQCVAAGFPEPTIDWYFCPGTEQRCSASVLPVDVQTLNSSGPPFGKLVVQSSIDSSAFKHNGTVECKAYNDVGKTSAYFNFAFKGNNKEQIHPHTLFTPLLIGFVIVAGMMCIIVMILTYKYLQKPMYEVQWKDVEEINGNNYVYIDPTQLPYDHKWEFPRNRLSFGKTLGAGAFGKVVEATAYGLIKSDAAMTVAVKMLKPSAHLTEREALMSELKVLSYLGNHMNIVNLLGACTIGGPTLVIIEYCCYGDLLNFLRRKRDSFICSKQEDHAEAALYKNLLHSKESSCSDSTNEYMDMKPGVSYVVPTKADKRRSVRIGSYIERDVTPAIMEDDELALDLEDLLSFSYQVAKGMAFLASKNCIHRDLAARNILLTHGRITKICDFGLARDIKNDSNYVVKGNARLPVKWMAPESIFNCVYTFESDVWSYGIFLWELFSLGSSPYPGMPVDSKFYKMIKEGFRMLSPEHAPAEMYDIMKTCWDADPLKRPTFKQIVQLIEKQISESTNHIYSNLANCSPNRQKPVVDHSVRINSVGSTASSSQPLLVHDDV

| Structure (SMILES) | KINOMEscan: KIT(V559D,T670I) (panel of 442 kinases [1]) | KINOMEscan: BTK (panel of 442 kinases [2]) | KINOMEscan: PHKG2 (panel of 442 kinases [3]) |
| --- | --- | --- | --- |
| CCOc1cc(C(=O)N2CCC(N3CCN(C)CC3)CC2)ccc1Nc1ncc2c(n1)N(C1CCCC1)c1ccccc1C(=O)N2C [Compound 26] | 100 | 100 | 90 |
| COc1cc(C(=O)N2CCC(N3CCN(C)CC3)CC2)ccc1Nc1ncc2c(n1)N(C1CCCC1)c1ccccc1C(=O)N2C [Compound 25, 11-cyclopentyl-2-((2-methoxy-4-(4-(4-methylpiperazin-1-yl)piperidine-1-carbonyl)phenyl)amino)-5-methyl-5H-benzo[e]pyrimido[5,4-b][1,4]diazepin-6(11H)-one] | 80 | 98 | 68 |
| COc1cc(C(=O)N2CCC(N3CCN(C)CC3)CC2)ccc1Nc1ncc2c(n1)N1CCc3cccc(c31)C(=O)N2C [Compound 24] |  |  | 47 |
| COc1cc(C(=O)N2CCC(N3CCN(C)CC3)CC2)ccc1Nc1ncc2c(n1)N(C)c1ccccc1C(=O)N2C [15 (LRRK2-IN-1)] | 81 | 100 | 33 |
